In patent publication US5252579A, “Macrocyclic immunomodulators” (American Home Products Corporation, priority 1993, dated 1993):
Like-named read-outs stand apart in the source and are kept apart here.

Tests used:
[1] = tested on: experimental allergic encephalomyelitis model; conditions: model for multiple sclerosis; cited from earlier work
skin graft = assay: pinch skin graft survival test procedure; format: in vivo, male BAB/c donors, male C3H(H-2K) recipients; conditions: 4 mg/kg of test compound; intraperitoneally or orally; untreated control 7.00 ± 0.00 days
Method: (§1) Immunosuppressive activity for a representative compound of this invention was evaluated in an in vitro standard pharmacological test procedure to measure lymphocyte proliferation (LAF) and in an in vivo standard pharmacological test procedure with evaluated the survival time of a pinch skin graft.
A representative compound of this invention was also evaluated in an in vivo test procedure designed to determine the survival time of pinch skin graft from male BAB/c donors transplanted to male C3 H(H-2K) recipients. The method is adapted from Billingham R. E. and Medawar P. B., J. Exp. Biol. 28:385-402, (1951). Briefly, a pinch skin graft from the donor was grafted on the dorsum of the recipient as a allograft, and an isograft was used as control in the same region. The recipients were treated with either varying concentrations of test compounds intraperitoneally or orally. Rapamycin was used as a test control. Untreated recipients serve as rejection control. The graft was monitored daily and observations were recorded until the graft became dry and formed a blackened scab. This was considered as the rejection day. The mean graft survival time (number of days±S.D.) of the drug treatment group was compared with the control group. […] Results are expressed as the mean survival time in days. Untreated (control) pinch skin grafts are usually rejected within 6-7 days. […]

Candida albicans = conditions: both in vitro and in vivo; cited from earlier work
[2] = alone or in combination with picibanil; cited from earlier work
IgE-like antibodies = conditions: cited from earlier work
adjuvant arthritis model = conditions: model for rheumatoid arthritis; cited from earlier work
thymocyte proliferation = assay: comitogen-induced thymocyte proliferation procedure (LAF); format: cell-based, BALB/c mice; conditions: for IC50: read-out: LAF IC50
Method: as §1
The comitogen-induced thymocyte proliferation procedure (LAF) was used as an […] measure of the immunosuppressive effects of representative compounds. Briefly, cells from the thymus of normal BALB/c mice are cultured for 72 hours with PHA and IL-1 and pulsed with tritiated thymidine during the last six hours. Cells are cultured with and without various concentrations of rapamycin, cyclosporin A, or test compound. Cells are harvested and incorporated radioactivity is determined. Inhibition of lymphoproliferation is assessed as percent change in counts per minute from non-drug treated controls. For each compound evaluated, rapamycin was also evaluated for the purpose of comparison. An IC50 was obtained for each test compound as well as for rapamycin. The results obtained for the representative compounds of this invention were also expressed as a ratio compared with rapamycin. A positive ratio indicates immunosuppressive activity. […] Calculation of the ratio is shown below. [formula]

Molecule	effect in experimental allergic encephalomyelitis model [1]	Skin Graft survival (days ± SD) (skin graft)	antifungal activity (Candida albicans)	antitumor activity [2]	inhibition of formation of IgE-like antibodies (IgE-like antibodies)	effect in adjuvant arthritis model (adjuvant arthritis model)	IC50 (thymocyte proliferation; Mus musculus, Thymocyte, 72 h)	T cell proliferation inhibition (thymocyte proliferation; at 10 nM)	T cell proliferation inhibition (thymocyte proliferation; at 0.1 μM)	LAF ratio (compared with rapamycin) (thymocyte proliferation; ratio > 1: inhibits thymocyte proliferation to a greater extent than rapamycin)	IC50 (thymocyte proliferation; thymocytes cultured 72 hours with PHA and IL-1, tritiated thymidine)
CO[C@H]1C[C@@H]2CC[C@@H](C)[C@@](O)(O2)C(=O)C(=O)N2CCCC[C@H]2C(=O)O[C@H]([C@H](C)C[C@@H]2CC[C@@H](O)[C@H](OC)C2)CC(=O)[C@H](C)/C=C(\C)[C@@H](O)[C@@H](OC)C(=O)[C@H](C)C[C@H](C)/C=C/C=C/C=C/1C [Rapamycin]	effective	11.67 ± 0.63 days	antifungal activity, particularly against Candida albicans	antitumor activity	effectively inhibited	effective	4.2 nM	–	–	–	–
23,25-Deepoxy-23,25-(2-aminoethanethio)-rapamycin [Example 2]	–	9.00 ± 0.63 days	–	–	–	–	–	77%	96%	0.82	5.1 nM
